Test results reported in BindingDB's records for doi:10.1016/j.chembiol.2004.03.022 (Cyclacel, 2004).

Columns and labels:
Test in all cases: Kinase Inhibition Assay
[1] = target: Cyclin-dependent kinase 4 (Homo sapiens, UniProt P11802)
Source text: (§1) In vitro kinase inhibition assay.

[2] = target: Cyclin-dependent kinase 2 (Homo sapiens, UniProt P24941)
Source text: as §1

G1/S-specific cyclin-D1 = G1/S-specific cyclin-D1 (Homo sapiens, UniProt P24385)
Source text: as §1

G1/S-specific cyclin-E1 = G1/S-specific cyclin-E1 (Homo sapiens, UniProt P24864)
Chain of G1/S-specific cyclin-E1 (P24864 whole entry): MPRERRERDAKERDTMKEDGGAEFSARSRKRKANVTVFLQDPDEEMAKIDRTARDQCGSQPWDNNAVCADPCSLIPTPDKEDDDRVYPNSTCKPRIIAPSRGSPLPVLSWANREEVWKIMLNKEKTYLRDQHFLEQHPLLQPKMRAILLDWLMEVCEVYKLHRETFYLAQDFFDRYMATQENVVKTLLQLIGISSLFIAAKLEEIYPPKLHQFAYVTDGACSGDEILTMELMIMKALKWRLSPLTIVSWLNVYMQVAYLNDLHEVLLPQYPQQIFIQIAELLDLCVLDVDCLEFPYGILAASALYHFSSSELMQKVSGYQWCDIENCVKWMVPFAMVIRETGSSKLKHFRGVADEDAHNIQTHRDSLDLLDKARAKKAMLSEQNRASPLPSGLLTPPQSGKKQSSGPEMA
Source text: as §1

Chain of G1/S-specific cyclin-D1 (P24385 whole entry): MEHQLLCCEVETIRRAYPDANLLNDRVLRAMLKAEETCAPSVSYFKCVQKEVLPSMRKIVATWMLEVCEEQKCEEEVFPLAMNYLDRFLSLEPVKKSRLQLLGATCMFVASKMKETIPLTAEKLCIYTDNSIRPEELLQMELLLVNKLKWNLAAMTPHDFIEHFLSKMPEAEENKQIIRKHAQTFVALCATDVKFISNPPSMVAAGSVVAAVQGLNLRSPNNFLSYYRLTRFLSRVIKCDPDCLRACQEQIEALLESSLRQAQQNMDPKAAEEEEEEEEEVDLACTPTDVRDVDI
Chain of Cyclin-dependent kinase 4 (P11802 whole entry): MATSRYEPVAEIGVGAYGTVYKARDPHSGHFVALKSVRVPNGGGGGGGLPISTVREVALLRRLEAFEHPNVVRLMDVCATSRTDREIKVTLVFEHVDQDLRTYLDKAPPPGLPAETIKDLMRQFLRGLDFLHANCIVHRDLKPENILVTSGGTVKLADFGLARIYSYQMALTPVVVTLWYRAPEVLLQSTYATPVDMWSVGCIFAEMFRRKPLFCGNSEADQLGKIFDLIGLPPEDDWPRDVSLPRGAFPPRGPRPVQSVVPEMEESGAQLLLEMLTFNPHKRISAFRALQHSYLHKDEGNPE

| Compound | IC50 [1] [nM] | IC50 [2] [nM] | IC50 (G1/S-specific cyclin-D1) [nM] | IC50 (G1/S-specific cyclin-E1) [nM] |
| --- | --- | --- | --- | --- |
| O=C1c2ccccc2-[n+]2ccc3c([nH]c4ccccc43)c21 | 350 | > 50000 |  |  |
| Cc1nc(N)sc1-c1ccnc(Nc2ccc(N3CCOCC3)cc2)n1 [2-amino-4-methyl-1,3-thiazol-5-yl)-N-[4-(morpholin-4-yl)phenyl]pyrimidin-2-amine, 5] |  |  | 2400 |  |
| CNc1nc(C)c(-c2ccnc(Nc3cccc(CN)c3)n2)s1 [Aminopyrimidine, 1] |  |  | 230 | 410 |
| CCNc1nc(C)c(-c2ccnc(Nc3cccc(CN)c3)n2)s1 [Aminopyrimidine, 2] |  |  | 110 | 330 |
| CNc1nc(C)c(-c2ccnc(Nc3cccc(CNC(C)=O)c3)n2)s1 [Aminopyrimidine, 3] |  |  | 890 | 430 |
| Cc1nc(C)c(-c2ccnc(Nc3ccc(N)cc3)n2)s1 [Aminopyrimidine, 4] |  |  | 3800 | 230 |
| Cc1nc(C)c(-c2ccnc(Nc3ccc(N4CCOCC4)cc3)n2)s1 [Aminopyrimidine, 5] |  |  | 4000 | 2000 |
| Cc1nc(C)c(-c2ccnc(Nc3ccc(N4CCNCC4)cc3)n2)s1 [Aminopyrimidine, 6] |  |  | 640 | 1100 |
| Cc1nc(C)c(-c2ccnc(Nc3ccc(N4CCN(C)CC4)cc3)n2)s1 [Aminopyrimidine, 7] |  |  | 160 | 1020 |
| Cc1nc(C)c(-c2ccnc(Nc3ccc(N4CCN(CCO)CC4)cc3)n2)s1 [Aminopyrimidine, 8] |  |  | 430 | 2200 |
| CNc1nc(C)c(-c2ccnc(Nc3ccc(N4CCNCC4)cc3)n2)s1 [Aminopyrimidine, 10] |  |  | 7 |  |
| COc1ccc(OC)c2c(=S)c3ccccc3[nH]c12 [NSC625987] | 200 | > 100000 |  |  |
